Measured values: PMC12552119, “Tailored structured peptide design with a key-cutting machine approach” (Nature Machine Intelligence, 2025)
Entries after “also recorded” stand apart in the source; their conditions may differ. Read-outs that look alike come from different tables or passages of the source. Where no end group is shown, it is not given here.

Assays:
A. baumannii ATCC 19606 [1] = type: cell-based, Acinetobacter baumannii
Protocol: (§1) Fig. 2 Antimicrobial activity and secondary structure of computationally designed peptides. a, Structure prediction of the synthesized peptides. b, Heatmap of the antimicrobial activities of the peptides against 11 clinically relevant pathogens, including four strains resistant to conventional antibiotics. Briefly, 10^6 bacterial cells and serially diluted peptides (1-64 μmol l^−1) were incubated at 37 °C. One day after treatment, the optical density at 600 nm was measured in a microplate reader to evaluate bacterial growth in the presence of the peptides. MIC values in the heatmap are the mode of the replicates in each condition. c–f, Ternary plots showing the percentage of secondary structure for each peptide (at 50 μmol l^−1) in four different solvents: water (c), 60% TFE in water (d), 10 mmol l^−1 SDS in water (e) and 50% methanol (MeOH) in water (f). Secondary structure fractions were calculated using the BeStSel server. […] An error of one column cannot be fully excluded. / Panel b: AT1, AT2, AT3 and all blank cells print no number and are left out.
(§2) In this study, we used the following pathogenic bacterial strains: A. baumannii ATCC 19606, E. coli AIC221 (E. coli MG1655 phnE_2::FRT (control strain for AIC222)) and E. coli AIC222 (E. coli MG1655 pmrA53 phnE_2::FRT (polymyxin resistant; colistin-resistant strain)), Klebsiella pneumoniae ATCC 13883, Pseudomonas aeruginosa PAO1, P. aeruginosa PA14 and Staphylococcus aureus ATCC 12600. All pathogens were grown in Luria–Bertani (LB) broth and on LB agar. Pseudomonas isolation (P. aeruginosa strains) agar plates were exclusively used in the case of Pseudomonas species. In all the experiments, bacteria were inoculated from one isolated colony and grown overnight (16 h) in liquid medium at 37 °C. On the following day, inocula were diluted 1:100 in fresh media and incubated at 37 °C to mid-logarithmic phase.
(§3) Broth microdilution assays[64] were conducted to establish the MIC for each peptide. Peptides were added to untreated polystyrene 96-well microtiter plates and serially diluted twofold in sterile water, ranging from 1 to 64 μmol l^−1. A bacterial inoculum at a concentration of 10^6 CFU ml^−1 in LB medium was then mixed in a 1:1 ratio with the peptide solution. […] Each assay was performed in three independent replicates.

E. coli ATCC 11775 = type: cell-based, Escherichia coli; conditions: ATCC 11775, 24 h
Protocol: as §1
Broth microdilution assays[64] were conducted to establish the MIC for each peptide. Peptides were added to untreated polystyrene 96-well microtiter plates and serially diluted twofold in sterile water, ranging from 1 to 64 μmol l^−1. […]

K. pneumoniae ATCC 13883 = type: cell-based, Klebsiella pneumoniae; conditions: ATCC 13883, 24 h
Protocol: as §1, §2, §3

P. aeruginosa PA14 = type: cell-based, Pseudomonas aeruginosa; conditions: PA14, 24 h
Protocol: as §1, §2
(§4) Broth microdilution assays[64] were conducted to establish the MIC for each peptide. […]

P. aeruginosa PAO1 = type: cell-based, Pseudomonas aeruginosa; conditions: PAO1, 24 h
Protocol: as §1, §2, §4

[2] = test system: E. faecium ATCC 700221 - VRE; type: cell-based; conditions: ATCC 700221, 24 h
Protocol: as §1, §3

A. baumannii ATCC 19606 [3] = assay: Skin abscess infection mouse model, bacterial load; type: in vivo, CD-1 mice; conditions: single dose at MIC on the wound 1 h after infection, n = 6
Protocol: Fig. 4 Anti-infective activity of designed peptides in a skin scarification animal model. a, Schematic representation of the skin abscess mouse model used to assess the anti-infective activity of the designed peptides (n = 6) against A. baumannii ATCC 19606. […] Statistical significance in panel b was determined using one-way ANOVA followed by Dunnett’s test; P values are shown in the graphs. In the violin, the centre line represents the […], the box limits the first and third quartiles and the whiskers (minima and maxima) represent 1.5 × the interquartile range. Panel a created with BioRender.com. Source data
The backs of six-week-old female CD-1 mice under anaesthesia were shaved and injured with a superficial linear skin abrasion made with a needle. An aliquot of A. baumannii ATCC 19606 (2 × 10^6 CFU ml^−1; 20 μl) previously grown in LB medium until 0.5 optical density ml^−1 (optical value at 600 nm) and then washed twice with sterile PBS (pH 7.4, 9,391 g for 3 min) was added to the scratched area. Peptides diluted in sterile water at MIC value were administered to the wound area 1 h after the infection. Two and four days after infection animals were euthanized, and the scarified skin was excised, homogenized using a bead beater (25 Hz for 20 min), tenfold serially diluted, and plated on McConkey agar plates for CFU quantification. […]

[4] = Mouse weight in the skin abscess model; set-up: species or system CD-1 mice; conditions: in vivo
Protocol: The backs of six-week-old female CD-1 mice under anaesthesia were shaved and injured with a superficial linear skin abrasion made with a needle. An aliquot of A. baumannii ATCC 19606 (2 × 10^6 CFU ml^−1; 20 μl) previously grown in LB medium until 0.5 optical density ml^−1 (optical value at 600 nm) and then washed twice with sterile PBS (pH 7.4, 9,391 g for 3 min) was added to the scratched area. Peptides diluted in sterile water at MIC value were administered to the wound area 1 h after the infection. Two and four days after infection animals were euthanized, and the scarified skin was excised, homogenized using a bead beater (25 Hz for 20 min), tenfold serially diluted, and plated on McConkey agar plates for CFU quantification. The experiments were performed using six mice per group. Mice were housed in groups of three and maintained under a 12-h light/dark cycle at 22 °C with humidity controlled at 50%. The skin abscess infection mouse model was revised and approved by University Laboratory Animal Resources from the University of Pennsylvania (protocol 806763).
(§5) Figure S6. Cytotoxicity and anti-infective activity of designed peptides. (a) Cytotoxic effects of increasing concentrations ([…]) of each peptide on human embryonic kidney (HEK293T) cells after 24 h of treatment. Mouse weight was monitored throughout the duration of the (b) skin abscess model (4 days total) and the (e) deep thigh infection model (8 days total) to assess potential toxic effects of both the bacterial load and the designed peptides. (c) Schematic of the neutropenic thigh infection mouse model, where the designed peptides were administered intraperitoneally. Anti-infective activity against A. baumannii ATCC 19606 was evaluated 4 days after intraperitoneal peptide administration (n = 6). (d) Four days after intraperitoneal injection, NE2 at its MIC (32 µmol L-1) inhibited by […]
(§6) Statistical significance in panel d was determined using one-way ANOVA followed by Dunnett’s test; P values are shown in the graphs. […]

A. baumannii ATCC 19606 [5] = assay: Deep thigh infection mouse model, bacterial load; type: in vivo, CD-1 mice; conditions: n = 6; for reduction of A. baumannii bacterial load, deep thigh infection model: neutropenic mice, peptides intraperitoneally
Protocol: (§7) Six-week-old female CD-1 mice were rendered neutropenic by two doses of cyclophosphamide (150 mg kg^−1 and 100 mg kg^−1) applied intraperitoneally 3 and 1 d before the infection. On day 4 of the experiment, the mice were infected in their right thighs with a 100-μl intramuscular injection of the A. baumannii ATCC 19606 in PBS at concentration of 5 × 10^6 CFU ml^−1. The bacterial cells were grown in LB broth, washed twice with PBS solution and diluted at the desired concentration. The peptides were administrated intraperitoneally 2 h after the infection. Two days after infection mice were euthanized, and the tissue from the right thigh was excised, homogenized using a bead beater (25 Hz for 20 min), tenfold serially diluted, and plated on McConkey agar plates for bacterial colony counting. The experiments were performed using six mice per group. Mice were housed in groups of three and maintained under a 12-h light/dark cycle at 22 °C with humidity controlled at 50%. The deep thigh infection mouse model was revised and approved by University Laboratory Animal Resources from the University of Pennsylvania (protocol 807055).
as §5, §6

[6] = type: in vivo, CD-1 mice; conditions: deep thigh infection model
Protocol: as §7, with “Mice were housed in groups of three and maintained under a 12-h light/dark cycle at 22 °C with humidity controlled at 50%. The deep thigh infection mouse model was revised and approved by University Laboratory Animal Resources from the University of Pennsylvania (protocol 807055).” left out
Figure S6. […] Mouse weight was monitored throughout the duration of the (b) skin abscess model (4 days total) and the (e) deep thigh infection model (8 days total) to assess potential toxic effects of both the bacterial load and the designed peptides. […] Anti-infective activity against A. baumannii ATCC 19606 was evaluated 4 days after intraperitoneal peptide administration (n = 6). […]
as §6

E. coli AIC221 = type: cell-based, Escherichia coli; conditions: AIC221, 24 h
Protocol: as §1, with “out. […]” for “out.”

A. baumannii ATCC 19606 [7] = assay: Cytoplasmic-membrane depolarization, DiSC3-5; type: cell-based, Acinetobacter baumannii; conditions: DiSC3-5 fluorescence, peptides at their MIC, 60 min
Protocol: Fig. 3 Mechanism of action and cytotoxic activity of designed peptides. a, To assess whether the peptides act on bacterial membranes, all active peptides against A. baumannii American Type Culture Collection (ATCC) 19606 were subjected to outer-membrane permeabilization, and peptides active against A. baumannii ATCC 19606 and vancomycin-resistant E. faecalis ATCC 700802 were tested in cytoplasmic-membrane depolarization assays. b, The fluorescent probe NPN was used to assess membrane permeabilization induced by the tested peptides. c,d, The fluorescent probe DiSC3-5 was used to evaluate membrane depolarization caused by the designed peptides in A. baumannii ATCC 19606 (c) and vancomycin-resistant E. faecalis ATCC 700802 (d). […] All experiments were performed in three independent replicates. […]
The cytoplasmic-membrane depolarization assay was performed using the membrane-potential-sensitive dye DiSC3-5. […] Membrane depolarization was then followed by reading changes in the fluorescence (λex = 622 nm, λem = 670 nm) over time for 60 min. The relative fluorescence was calculated using the untreated control (buffer + bacteria + fluorescent dye) as baseline and the following equation was applied to reflect the percentage difference between the baselines and the sample: percentagedifference=100×(fluorescencesample−fluorescenceuntreatedcontrol)/fluorescenceuntreatedcontrol. […]

HEK293T cells = conditions: cited from earlier work
Protocol: Cytotoxicity was evaluated using human embryonic kidney (HEK293T) cells (Fig. 3e)[45].

[8] = broth microdilution, LB, 10^6 CFU ml^-1, peptides 1-64 μmol l^-1, 24 h, 37 °C, OD600, mode of three replicates

Q: Which MIC (A. baumannii ATCC 19606 [1]; ATCC 19606, 24 h) does the source give for HWKLIVRWKVQH [NG1] here?
A: 4 µM

Q: And the MIC (A. baumannii ATCC 19606 [1]; [8])?
A: 4 µM

Q: And the MIC (E. coli ATCC 11775)?
A: 16 µM

Q: And the MIC (K. pneumoniae ATCC 13883)?
A: 4 µM

Q: And the MIC (P. aeruginosa PA14)?
A: 16 µM

Q: And the MIC (P. aeruginosa PAO1)?
A: 32 µM

Q: And the MIC [2]?
A: 4 µM

Q: And the “reduction of A. baumannii bacterial load, skin abscess model” value (A. baumannii ATCC 19606 [3])?
A: up to two orders of magnitude; also recorded: inhibited the proliferation of the infection for up to 4 d after treatment

Q: And the “weight loss or skin damage” value [4]?
A: No weight loss or skin damage

Q: And the “reduction of A. baumannii bacterial load, deep thigh infection model” value (A. baumannii ATCC 19606 [5])?
A: up to two orders of magnitude

Q: And the “weight loss or skin damage” value [6]?
A: No weight loss or skin damage

Q: Which results are given for KFKLIVHYRICK [NG3]?
A: MIC (A. baumannii ATCC 19606 [1]; ATCC 19606, 24 h): 32 µM; MIC (E. coli AIC221): 8 µM; MIC (K. pneumoniae ATCC 13883): 16 µM; cytoplasmic-membrane depolarization (A. baumannii ATCC 19606 [7]): particularly effective

Q: With KWKARIQFKAAH [NE2] as the sequence, how does the MIC (A. baumannii ATCC 19606 [1]; ATCC 19606, 24 h) read?
A: 32 µM

Q: And the MIC (A. baumannii ATCC 19606 [1]; [8])?
A: 32 µM

Q: What about the MIC (E. coli ATCC 11775) of the same sequence?
A: 16 µM

Q: And the MIC (K. pneumoniae ATCC 13883)?
A: 16 µM

Q: And the MIC (P. aeruginosa PAO1)?
A: 64 µM

Q: What about the MIC [2] of the same sequence?
A: 32 µM

Q: And the “reduction of A. baumannii bacterial load, skin abscess model” value (A. baumannii ATCC 19606 [3])?
A: up to two orders of magnitude; also recorded: inhibited the proliferation of the infection for up to 4 d after treatment

Q: What about the “weight loss or skin damage” value [4] of the same sequence?
A: No weight loss or skin damage

Q: What about the “inhibition of the A. baumannii ATCC19606 infection against the untreated control” value (A. baumannii ATCC 19606 [5]; four days after intraperitoneal injection, at its MIC) of the same sequence?
A: one order of magnitude

Q: What about the “reduction of A. baumannii bacterial load, deep thigh infection model” value (A. baumannii ATCC 19606 [5]) of the same sequence?
A: up to two orders of magnitude

Q: What about the “weight loss or skin damage” value [6] of the same sequence?
A: No weight loss or skin damage

Q: For KWRLLIRWRIQK [IDR-2009], which “cytotoxicity of the parental peptide” value (HEK293T cells) is on record?
A: did show cytotoxicity
